Test results published in patent US5808139A (Ligand Pharmaceuticals Incorporated, priority 1994, dated 1998).
Entries after “also recorded” stand apart in the source; their conditions may differ.

Legend:
[1] = tested on: endometrium of the uterus; assay: Decidualization assay in pseudopregnant mice, oil-induced uterine weight gain; format: in vivo; conditions: for Inhibition of decidualization weight gain: vs oil control; for Net Uterine Weight Gain: intraluminal, autopsy Day 7, oil alone control 334.7 +/- 41.0
Description: A successful pregnancy requires not only the effective collision and fusion of egg and spermatozoon, but also the provision of a receptive and supportive uterus. The preparation of the endometrium of the uterus for implantation (i.e. decidualization) starts well before the blastocyst arrives in the uterus.
Psuedopregnant mice (i.e. mated with vasectomized males) were used to establish the assay system. […] At 16 hours of Day 4, a small volume of sesame oil (10 μl) was introduced to the lumen of the right uterine horn to serve as a decidual stimulus. The left horn was left undisturbed to serve as an internal control. Autopsies were performed on Day 7 to assess uterine wet weight gains in the stimulated versus non-stimulated uterine horns.
Each of these compounds was intraluminally administered in an appropriate dosage on Day 4 along with the sesame oil administration.

[2] = tested on: human progesterone receptor altered at the Tau-1 location; assay: Co-transfection assay in CV-1 cells, progesterone receptor altered at Tau-1, antagonist activity; format: cell-based; conditions: for Efficacy (% maximal response relative to RU-486), CV-1 cells: antagonist activity; for IC50: concentration required to reduce the maximal response by 50%, read-out: Potency (IC50), CV-1 cells
Description: (§1) This assay is described in further detail in U.S. Pat. Nos. 4,981,784 and 5,071,773, which are incorporated herein by reference. The co-transfection assay provides a method for identifying functional ligands (either agonists which mimic, or antagonists which inhibit, the effect of hormones) for ligand-responsive receptor proteins.
(§2) The co-transfection assay provides a mechanism to evaluate ability of a compound to function as an agonist or antagonist of the activity modulated by an intracellular receptor. The co-transfection assay mimics an in vivo system in the laboratory. In the co-transfection assay, a cloned gene for an intracellular receptor is introduced by transfection (a procedure to induce cells to take up foreign genes) into a background cell substantially devoid of endogenous intracellular receptors. This introduced gene directs the recipient cells to make the intracellular receptor protein. A second gene is also introduced (co-transfected) into the same cells in conjunction with the intracellular receptor gene. This second gene functions as a reporter for the transcription-modulating activity of the target intracellular receptor. The reporter acts as a surrogate for the products normally expressed by a gene under control of the target receptor and its natural hormone.
(§3) A preferred reporter gene is one which expresses the firefly enzyme luciferase. The co-transfection assay can detect small molecule agonists or antagonists of target intracellular receptors. Exposing the cells to an agonist ligand increases reporter activity in the transfected cells that can be conveniently measured, reflecting ligand-dependent, intracellular receptor-mediated increases in reporter transcription. To detect antagonists, the co-transfection assay is carried out in the presence of a constant concentration of an agonist known to induce a defined reporter signal. Increasing concentrations of a test antagonist will decrease the reporter signal. The co-transfection assay is therefore useful to detect both agonists and antagonists of specific intracellular receptors. It determines not only whether a compound interacts with a particular intracellular receptor, but also whether this interaction mimics (agonizes) or blocks (antagonizes) the effects of the natural regulatory molecules on target gene expression.
(§4) Co-transfected cells are exposed to a medium to which is added the potential ligand that is being evaluated. If the candidate ligand diffuses into the cell and binds to the receptor and the resulting complex functions as an agonist, it binds to the co-transfected reporter gene and initiates transcription. When that gene is one that expresses, for example, luciferase, luciferase is produced which catalyzes a light-emitting reaction with its substrate luciferin. Thus, after cell lysis and the introduction of luciferin, the amount of light produced relative to the concentration of candidate ligand used in the assay provides a measure of the potency and efficacy of the compound tested. Antagonist activity is evaluated by adding the candidate ligand and a known agonist to the co-transfected cells.
(§5) The receptor cDNA was introduced in a mammalian expression vector under the control of the Rous Sarcoma virus LTR. […] A reporter vector was also transfected, containing a firefly luciferase gene under the control of the hormone-responsive promoter. […] The level of luciferase activity was then measured in cell extracts. Light emission is directly proportional to the effectiveness of the hormone-receptor complex in activating gene expression.
A total of three replicates per concentration point were tested for each compound, and the EC50 was calculated for each positive response. Both agonist and antagonist activity for each test compound was determined in parallel. […]

[3] = tested on: progesterone receptor (T47D cells); assay: Antagonist assay in T47D (human breast cancer) cells (Tables 1 and 2); format: cell-based; conditions: for Efficacy (% maximal response relative to RU-486), T47D cells: antagonist activity; for IC50: concentration required to reduce the maximal response by 50%, read-out: Potency (IC50), T47D cells
Description: The functional activities of the cyclocymopol analogues in the human breast cell line, T47D, were also investigated. T47D cells have proven to be a particularly useful model to investigate the molecular actions of sex steroids because they contain endogenous functional receptors for, and respond to, progestins, and their respective antagonists. […] In T47D cells, progestins induce de novo synthesis of a plasma-associated alkaline phosphatase, which has been reported to be similar, if not identical, to the alkaline phosphatase present in the normal breast and human milk. These tests were conducted according to the following illustrative example.
The assay was also run using T47D (human breast cancer) cells.

T47D cells = assay: Alkaline phosphatase activity in T47D cells (induction and its inhibition); format: cell-based, human; conditions: ligand alone; three days
Description: The functional activities of the cyclocymopol analogues in the human breast cell line, T47D, were also investigated. T47D cells have proven to be a particularly useful model to investigate the molecular actions of sex steroids because they contain endogenous functional receptors for, and respond to, progestins, and their respective antagonists. Moreover, these cells contain exceptionally high titers of progesterone receptors and are exquisitely sensitive to the actions of progestins in a manner quite similar to their actions in normal and neoplastic mammary epithelial cells. In T47D cells, progestins induce de novo synthesis of a plasma-associated alkaline phosphatase, which has been reported to be similar, if not identical, to the alkaline phosphatase present in the normal breast and human milk. These tests were conducted according to the following illustrative example. […] For routine induction of alkaline phosphatase, cells were treated for three days with two media changes and harvested as described below. […] Nuclei were sedimented at 2500 rpm, and the supernatant was saved as cytosol. The protein content of the cytosol was assayed by the method of Bradford. Alkaline phosphatase activity was determined by incubating one volume of cell extract with three volumes of 1 mg/ml p-nitrophenol phosphate prepared in DEAM (1M diethanolamine, pH=9, containing 2 mM magnesium chloride) at room temperature for 20 min. At the end of the incubation time, the reaction was stopped with an equal volume of 1N NaOH. Ten standards of p-nitrophenol were prepared in DEAM buffer and absorbance was read at 405 nm. Alkaline phosphatase activity is expressed as pmol p-nitrophenol formed/min/mg protein.

[4] = biological target: T1, human progesterone receptor (Homo sapiens, UniProt P06401); assay: Co-transfection (cis-trans) assay in CV-1 cells, agonist and antagonist mode; format: cell-based; set-up: expressed in transfected cells; host or cells: CV-1 cells (calcium phosphate transfection), whole cell extract; conditions: antagonist mode with 10^-8 M progesterone
T1 sequence (P06401 1-933): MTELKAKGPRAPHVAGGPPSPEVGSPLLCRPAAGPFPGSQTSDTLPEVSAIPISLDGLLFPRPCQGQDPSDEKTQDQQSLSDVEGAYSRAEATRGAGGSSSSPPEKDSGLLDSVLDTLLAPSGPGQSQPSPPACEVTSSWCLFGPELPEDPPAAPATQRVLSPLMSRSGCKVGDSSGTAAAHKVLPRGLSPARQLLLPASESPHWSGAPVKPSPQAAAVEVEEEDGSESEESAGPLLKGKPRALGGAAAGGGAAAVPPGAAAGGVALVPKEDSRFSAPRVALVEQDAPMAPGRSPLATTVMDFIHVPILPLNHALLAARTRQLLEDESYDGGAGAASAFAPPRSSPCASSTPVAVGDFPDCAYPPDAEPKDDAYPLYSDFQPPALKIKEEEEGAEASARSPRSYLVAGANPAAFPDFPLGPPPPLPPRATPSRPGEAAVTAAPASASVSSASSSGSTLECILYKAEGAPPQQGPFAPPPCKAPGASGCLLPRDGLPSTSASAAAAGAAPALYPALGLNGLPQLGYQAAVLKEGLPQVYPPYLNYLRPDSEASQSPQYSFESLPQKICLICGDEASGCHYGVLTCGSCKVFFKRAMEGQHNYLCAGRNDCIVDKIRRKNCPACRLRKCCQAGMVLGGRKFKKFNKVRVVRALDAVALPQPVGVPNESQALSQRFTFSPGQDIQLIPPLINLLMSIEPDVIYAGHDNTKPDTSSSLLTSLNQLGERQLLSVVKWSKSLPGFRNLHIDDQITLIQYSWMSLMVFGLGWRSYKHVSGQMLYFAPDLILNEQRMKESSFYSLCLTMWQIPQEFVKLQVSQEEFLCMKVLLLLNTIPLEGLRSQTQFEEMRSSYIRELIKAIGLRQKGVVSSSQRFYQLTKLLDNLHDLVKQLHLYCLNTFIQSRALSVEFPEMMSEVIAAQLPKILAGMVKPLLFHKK
Description: as §1, §2, §3, §4, §5
A total of three replicates per concentration point were tested for each compound, and the EC50 was calculated for each positive response. Both agonist and antagonist activity for each test compound was determined in parallel.

[5] = biological target: T1, human progesterone receptor; assay: Progesterone receptor binding (displacement of 3H-progesterone, whole cell extract of transfected CV-1 cells); set-up: expressed in transfected cells; host or cells: CV-1 cells (calcium phosphate transfection), whole cell extract
Description: These tests were conducted according to the following illustrative example.
CO2 for 40 hours prior to harvest.
After incubation, cells were harvested and washed in phosphate buffered saline. Whole cell receptor extract was prepared by homogenizing the harvested cells in Tris-HCl buffer, pH=7.4, containing 30% glycerol, 1 mM EDTA, 12 mM monothioglycerol, 1 mM PMSF, and 0.5M potassium chloride. The homogenate was incubated at 4° C. for 60 min with resuspension every 10 min. The suspension was centrifuged (105,000×g, 60 min) and the supernatant was collected and flash frozen in liquid nitrogen and stored frozen at -70° C.
To a […] final volume incubation mixture, […] of 7.5% (w/v) dextran-coated charcoal suspension in gelatin phosphate buffer was added. The mixture was vortexed and incubated at 4° C. for 10 min and then centrifuged at 3000 rpm for 10 min. The amount of bound tritiated hormone was determined by liquid scintillation spectrophotometry of an aliquot of the supernatant. […]

| SMILES | Inhibition of decidualization weight gain ([1]; 0.1 mg) | Net Uterine Weight Gain ([1]; 0.1 mg) | Efficacy (% maximal response relative to RU-486), CV-1 cells [2] | Efficacy (% maximal response relative to RU-486), T47D cells [3] | Inhibition of decidualization weight gain ([1]; 5 mg) | Net Uterine Weight Gain ([1]; 5 mg) | Agonist activity, alkaline phosphatase induction (T47D cells) | Progesterone receptor agonist/antagonist activity [4] | IC50 [2] | IC50 [3] | Kd [5] |
| --- | --- | --- | --- | --- | --- | --- | --- | --- | --- | --- | --- |
| CN(C)c1ccc([C@H]2C[C@]3(C)[C@@H](CC[C@]3(O)CCCO)[C@@H]3CCC4=CC(=O)CCC4=C32)cc1 [ZK299, reference compound] | approximately 88% | 41.1 ± 21.0 mg | – | – | – | – | – | – | – | – | – |
| C=C1CCCC(C)(C)C1Cc1cc(OC)c(Br)cc1O (stereo in doubt) [J, (3R)-1-Debromocyclocymopol monomethyl ether] | – | – | 95% | 85% | ~91% | 30.7 ± 16.2 mg | – | – | – | – | – |
| C=C1CC[C@@H](Br)C(C)(C)[C@H]1Cc1cc(OC)c(Br)cc1OC(C)=O [SO-51] | – | – | – | – | – | – | functional agonists; also recorded: increased the activity of intracellular alkaline phosphatase in a concentration-dependent manner | progesterone receptor agonist activity | – | – | – |
| C=C1C=C(C)CC(C)(C)C1Cc1ccc([N+](=O)[O-])cc1 (centres unmarked) [I, 1-Methylidene-6-(4'-nitrophenyl)methyl-3,5,5-trimethylcyclohex-2-ene] | – | – | 95% | 75% | approximately 81% | 63.9 ± 20.9 mg | – | – | 700 nM | 125 nM | 55 nM |
| C=C1C=C[C@@H](C)C(C)(C)[C@@H]1Cc1cc(OC)c(Br)cc1O (relative stereo) [KK, trans-1-Methylidene-6-(2'-hydroxy-4'-bromo-5'-methoxyphenyl)methyl-4,5,5-trimethylcyclohex-2-ene] | – | – | 75% | 76% | – | – | – | – | 1600 nM | 1300 nM | 346 nM |
| C=C1C=C(C)CC(C)(C)C1Cc1cc(OC)c(Br)cc1OC(C)=O (centres unmarked) [H, 1-Methylidene-6-(2'-acetoxy-4'-bromo-5'-methoxyphenyl)methyl-3,5,5-trimethylcyclohex-2-ene] | – | – | 40% | 60% | – | – | – | – | 700 nM | 775 nM | 60 nM |
| C=C1C=CCC(C)(C)C1Cc1cc(OC)c(Br)cc1OC(C)=O (centres unmarked) [L, 1-Methylidene-6-(2'-acetoxy-4'-bromo-5'-methoxyphenyl)methyl-5,5-dimethylcyclohex-2-ene] | – | – | 55% | 75% | – | – | – | – | 825 nM | 200 nM | 90 nM |
| C=C1C[C@H](CCCO)CC(C)(C)[C@@H]1Cc1cc(OC)c(Br)cc1O (relative stereo) [X, cis-1-Methylidene-2-(2'-hydroxy-4'-bromo-5'-methoxyphenyl)methyl-3,3-dimethyl-5-(3-hydroxypropyl)cyclohexane] | – | – | 99% | 84% | – | – | – | – | 1100 nM | 210 nM | 384 nM |
